Reference: BindingDB's records for doi:10.1021/jm970373j (Parke-Davis Pharmaceutical Research, 1998)

Biological target: Gastrin/cholecystokinin type B receptor (Cavia porcellus)
Assay: Compound was evaluated for functional activity on Cholecystokinin type B receptor (CCK-B) receptor carried out on guinea pig stomach cells.

| IC50 | SMILES |
| --- | --- |
| 33 nM | CCOC(=O)c1cccc(NC(=O)NNc2nc3ccccc3c(=O)n2-c2ccc(Cl)cc2)c1 [N-(3-ethylesterbenzoicacid)-2-[3,4-dihydro-3-[(4-chloro)-phenyl]-4-oxo-2-quinazolinyl]hydrazinecarboxamide] |
| 54 nM | CC(C)Oc1cccc(-n2c(NNC(=O)Nc3ccc(Br)cc3)nc3ccccc3c2=O)c1 [N-(4-Bromophenyl)-2-[3,4-dihydro-3-[3-(1-methylethoxy)phenyl]-4-oxo-2-quinazolinyl]hydrazinecarboxamide] |
| 22 nM | CCOC(=O)c1cccc(NC(=O)NNc2nc3ccccc3c(=O)n2-c2cccc(OC(C)C)c2)c1 [N-(3-ethylesterbenzoicacid)-2-[3,4-dihydro-3-[(3-Isopropoxy)phenyl]-4-oxo-2-quinazolinyl]hydrazinecarboxamide] |
